The values below come from patent US6288060A, “Amino substituted pyrimidines and triazines” (Neurocrine Biosciences, Inc., priority 1998, dated 2001).

In this experiment the target is T1, human CRF receptors (Homo sapiens, UniProt P34998).
T1 construct: expressed in transfected cells
T1 sequence (P34998 24-415): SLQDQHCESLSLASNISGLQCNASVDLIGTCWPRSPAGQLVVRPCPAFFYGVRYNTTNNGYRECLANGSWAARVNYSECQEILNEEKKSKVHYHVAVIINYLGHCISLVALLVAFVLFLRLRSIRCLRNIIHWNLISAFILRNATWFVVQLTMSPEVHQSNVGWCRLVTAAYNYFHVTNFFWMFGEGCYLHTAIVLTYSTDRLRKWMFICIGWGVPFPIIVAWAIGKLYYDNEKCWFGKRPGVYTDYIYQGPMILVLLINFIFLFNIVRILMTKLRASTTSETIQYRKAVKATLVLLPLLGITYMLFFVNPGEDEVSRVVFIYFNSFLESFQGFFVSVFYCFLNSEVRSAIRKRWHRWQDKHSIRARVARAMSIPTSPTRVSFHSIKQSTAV
As to the kind of experiment: radioligand binding assay, displacement of [125I]tyrosine-ovine CRF from CRF receptor (stably transfected cells). The conditions noted are these: for Ki: [125I]tyrosine-ovine CRF ~200 pM, cells stably transfected with human CRF receptors, 2 hours at 22° C. The source says:
The effectiveness of a compound as a CRF receptor antagonist may be determined by various assay methods. […] CRF receptor affinity may be determined by binding studies that measure the ability of a compound to inhibit the binding of a radiolabeled CRF (e.g. [^125 I]tyrosine CFR) to receptor (e.g., receptors prepared from rat cerebral cortex membranes). The radioligand binding assay described by DeSouza et al. (supra, 1987) provides an assay for determining a compound's affinity for the CRF receptor.
where L=radioligand and KD =affinity of radioligand for receptor (Cheng and Prusoff, Biochem. Pharmacol. 22:3099, 1973).
By utilizing various radiolabeled CRF ligands, the assay may be used to evaluate the binding activity of the compounds of the present invention with any CRF receptor subtype. Briefly, the binding assay involves the displacement of a radiolabeled CRF ligand from the CRF receptor.
More specifically, the binding assay was performed in 1.5 ml Eppendorf tubes using approximately 1×10^6 cells per tube stably transfected with human CRF receptors. Each tube received about 0.1 ml of assay buffer (e.g., Dulbecco's phosphate buffered saline, 10 mM magnesium chloride, 20 μM bacitracin) with or without unlabeled sauvagine, urotensin I or CRF (final concentration, […]) to determine nonspecific binding, 0.1 ml of [^125 I] tyrosine--ovine CRF (final concentration ~200 pM or approximately the KD as determined by Scatchard analysis) and 0.1 ml of a membrane suspension of cells containing the CRF receptor. The mixture was incubated for 2 hours at 22° C. followed by the separation of the bound and free radioligand by centrifugation. Following two washes of the pellets, the tubes were cut just above the pellet and monitored in a gamma counter for radioactivity at approximately 80% efficiency. All radioligand binding data was analyzed using a non-linear least-square curve-fitting program. Binding activity corresponds to the concentration (nM) of the compound necessary to displace 50% of the radiolabeled ligand from the receptor.
Background: Loss of bound radioactivity is the signal in a displacement assay; it reports binding, not function.

For the compound `CCCN(CC1CC1)c1nc(C)nc(C(=O)c2c(OC)cc(OC)cc2OC)c1C` [Compound 2], the inhibitory constant (Ki) (usually a dissociation constant, usually derived from enzyme kinetics or from competition with a known ligand) was no more than 250 nM.

In the case of `CCCN(CC1CC1)c1nc(C)nc(C(=O)c2c(C)cc(C)cc2C)c1C` [Compound 5], the inhibition constant (Ki) was no more than 250 nM.

`CCCN(CC1CC1)c1nc(C)nc(C(=O)c2c(CC)cc(CC)cc2CC)c1C` [Compound 8] returned an inhibitory constant (Ki) of no more than 250 nM. Besides, the “score in CRF receptor binding test (ranking among compounds)” value (result in words, same radioligand binding assay) is given as “best score”.

For the compound `CCCN(CCC)c1nc(C)nc(C(=O)c2c(C)cc(C)cc2C)c1C` [Compound 13], the Ki was no more than 250 nM.

As to `C=CCN(CC=C)c1nc(C)nc(C(=O)c2c(C)cc(C)cc2C)c1C` [Compound 14], the Ki is no more than 250 nM.

On to `CCCN(CC1CC1)c1nc(C)nc(Cc2c(OC)cc(OC)cc2OC)c1C` [Compound 20, 2,6-dimethyl-4-(N-propyl-N-cyclopropylmethylamino)-6-(2',4',6'-trimethyloxyphenylmeth-1'-yl)-pyrimidine], for which the inhibition constant (Ki) is no more than 250 nM.
